Results: patent US20120219615A1, “Therapeutic Use of a TLR Agonist and Combination Therapy” (The Trustees of the University of Pennsylvania, priority 2010, published 2012)

Tests used:
TLR7 = target: T1, TLR7 (Homo sapiens, UniProt Q9NYK1); assay: HEK293 cells transfected with TLR7 and NF-κB driven reporter gene; type: cell-based; details: HEK293 transfectants
T1 construct: expressed in transfected cells; host or cells: HEK293
T1 sequence (Q9NYK1 27-1049): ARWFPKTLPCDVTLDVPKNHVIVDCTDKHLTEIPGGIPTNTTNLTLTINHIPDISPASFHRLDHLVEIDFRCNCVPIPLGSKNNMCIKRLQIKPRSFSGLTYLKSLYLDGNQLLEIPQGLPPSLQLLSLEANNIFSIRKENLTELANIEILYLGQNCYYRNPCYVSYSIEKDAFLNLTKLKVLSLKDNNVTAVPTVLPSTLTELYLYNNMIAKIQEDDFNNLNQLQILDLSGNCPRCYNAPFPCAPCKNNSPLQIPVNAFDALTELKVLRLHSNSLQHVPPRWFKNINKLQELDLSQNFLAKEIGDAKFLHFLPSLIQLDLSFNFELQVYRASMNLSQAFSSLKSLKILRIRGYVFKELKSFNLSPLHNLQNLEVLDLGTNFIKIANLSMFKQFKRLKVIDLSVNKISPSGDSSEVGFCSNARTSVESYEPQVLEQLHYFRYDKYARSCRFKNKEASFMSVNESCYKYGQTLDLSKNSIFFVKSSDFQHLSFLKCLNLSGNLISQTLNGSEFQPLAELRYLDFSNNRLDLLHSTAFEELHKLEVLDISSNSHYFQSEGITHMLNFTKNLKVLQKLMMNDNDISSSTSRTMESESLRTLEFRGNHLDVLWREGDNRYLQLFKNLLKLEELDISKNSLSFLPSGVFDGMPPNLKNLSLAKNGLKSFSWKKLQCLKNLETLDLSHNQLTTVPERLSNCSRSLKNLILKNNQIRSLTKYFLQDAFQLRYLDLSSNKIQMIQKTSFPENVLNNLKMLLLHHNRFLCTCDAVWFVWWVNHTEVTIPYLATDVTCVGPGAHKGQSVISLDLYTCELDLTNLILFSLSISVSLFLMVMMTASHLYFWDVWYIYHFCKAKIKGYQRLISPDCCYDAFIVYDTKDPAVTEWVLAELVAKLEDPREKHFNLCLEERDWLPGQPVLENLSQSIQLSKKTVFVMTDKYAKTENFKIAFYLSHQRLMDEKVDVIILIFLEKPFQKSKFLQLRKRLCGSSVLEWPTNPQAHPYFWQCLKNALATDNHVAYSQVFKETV
Method: (§1) The half-maximal effective concentration (EC50) for VTX-2337 activation of TLR8 and TLR7 was assessed in peripheral blood mononuclear cells (PBMCs) from 15 healthy donors and also in HEK293 cells transfected with TLR8 or TLR7 and an NF-κB driven reporter gene. […] Also it was observed that VTX-2337 had no activity on TLR2, TLR3, TLR4, TLR5, TLR6, or TLR9 at concentrations up to 25 μM.

TLR2 = TLR2 (Homo sapiens, UniProt O60603); assay: Activity on TLR2; type: cell-based; details: concentrations up to 25 μM
Chain of TLR2 (O60603 21-784, species assumed): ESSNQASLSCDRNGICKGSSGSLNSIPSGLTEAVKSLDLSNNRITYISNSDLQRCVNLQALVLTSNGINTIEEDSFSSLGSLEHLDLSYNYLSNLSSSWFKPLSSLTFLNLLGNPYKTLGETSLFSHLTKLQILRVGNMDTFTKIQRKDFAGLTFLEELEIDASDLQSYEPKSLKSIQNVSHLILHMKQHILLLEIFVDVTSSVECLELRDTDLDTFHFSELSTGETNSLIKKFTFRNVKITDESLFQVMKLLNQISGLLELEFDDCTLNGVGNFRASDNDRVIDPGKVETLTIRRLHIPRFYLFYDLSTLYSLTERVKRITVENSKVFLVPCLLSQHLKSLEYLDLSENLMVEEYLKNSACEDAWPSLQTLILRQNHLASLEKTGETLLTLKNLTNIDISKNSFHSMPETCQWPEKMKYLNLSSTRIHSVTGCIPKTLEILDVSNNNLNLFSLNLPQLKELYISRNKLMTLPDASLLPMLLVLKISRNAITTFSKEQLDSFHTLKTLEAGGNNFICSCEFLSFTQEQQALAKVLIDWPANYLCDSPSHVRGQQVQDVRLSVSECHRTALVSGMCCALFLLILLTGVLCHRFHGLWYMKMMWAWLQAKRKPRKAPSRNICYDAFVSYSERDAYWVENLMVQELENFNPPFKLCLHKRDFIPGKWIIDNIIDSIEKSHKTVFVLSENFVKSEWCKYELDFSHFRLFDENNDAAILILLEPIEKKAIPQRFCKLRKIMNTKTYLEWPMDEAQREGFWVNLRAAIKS
Method: as §1

EC50 (TLR7): 2 µM
activity on TLR2 (TLR2): no activity
Compound: CCCN(CCC)C(=O)C1=Cc2ccc(-c3ccc(C(=O)N4CCCC4)cc3)cc2N=C(N)C1 [VTX-2337, 2-amino-N,N-dipropyl-8-(4-(pyrrolidine-1-carbonyl)phenyl)-3H-benzo[b]azepine-4-carboxamide]
